Experimental data reported in US20250066282A1, “NOVEL ANALOGS OF VALPROIC ACID AND METHODS OF MEDICAL TREATMENT USING THE SAME” (Cereno Scientific AB, priority 2021, published 2025).

Key:
[1] = reported by Rettie, J. Biol. Chem. 263(27):13733-13738 (1988); cited from earlier work
C57BL/6 wild type mice [2] = test: Excessive bleeding assay (tail bleeding time); assay type: in vivo; conditions: tail resection 5 mm, 100 mg/kg IP once a day for five days, compared to control (FIG. 1)
Protocol: To determine the risks of excessive bleeding associated with the compounds of the present invention, the last 5 mm of the tail of mice was resected to identify the amount of time necessary for the vessel to properly clot and prevent excessive loss of blood.
10-12 weeks old C57BL/6 wild type mice were purchased from Jackson Laboratories for these experiments. Various compounds were administered to the mice via IP injection once a day at a dose of 100 mg/kg of compound for five days prior to resection.
Mice were sedated with 250 μL of ketamine solution (Ketamine (100 μL)/xylazine (50 μL) in 850 μl. Saline solution). The mice were then placed face down on a heat pad on top of the bead bath to enable the tail to be pulled into a saline-filled tube. 5 mm of the tail as cut with a scalpel and the tail was placed in a saline-filled tube and a timer started. The timer was stopped when the bleeding stopped, but the possibility of re-bleeds was observed from 10 minutes after initial bleeding stopped. If the mouse bleeds continuously for 10 minutes, the experiment was halted and the mouse was euthanized. One-way ANOVA with Dunnett's correction for multiple comparison test was performed to determine statistical significance of bleeding times.

C57BL/6 wild type mice [3] = test: Cremaster laser-induced thrombosis assay (platelet accumulation, fibrin formation); assay type: in vivo; conditions: cremaster arteriole laser-induced injury
Protocol: The effects of the compounds of the invention and VPA on the ability and timing of clot formation were determined. Specifically, platelet accumulation and fibrin formation in the cremaster artery in forming a non-occlusive clot were measured following laser-induced insult to the vessel in 10-12 week-old mice (C57BL/6 wild type mice purchased from Jackson Laboratories).
Valproic acid (VPA) was purchased from Sigma-Aldrich as a powder and resuspended in 0.9% Sodium Chloride (saline) to prepare a final stock solution of each compound.
To assess platelet accumulation and fibrin formation, a Zeiss Axio Examiner Z1 fluorescent multichannel intravital microscope was used. The microscope was equipped with: (1) a solid laser launch system (LaserStack; Ablate! Photoablation system, intelligent Imaging innovations), (2) a high-speed sCMOS camera, and (3) a laser ablation system (intelligent Imaging innovations, Denver, CO, USA). SlideBook 6.0 digital microscopy software for image recording and analysis was also used. An anti-platelet antibody, and an anti-fibrin antibody, both commercially available, were used for imaging purposes.
The dynamic accumulation of platelets and fibrin within thrombi at the site of the injury in vivo was evaluated in cremaster arteriole in response to laser-induced injury under intravital microscopy. Adult male mice (10-12 weeks old) were treated with 30 mg/kg and 100 mg/kg for 5 days prior to injury were anesthetized by an intraperitoneal injection of ketamine/xylazine (100 and 10 mg/kg, respectively) and the jugular vein was cannulated. A tracheal tube was inserted to facilitate breathing. The cremaster arteriole was surgically prepared and superfused with preheated bicarbonate saline buffer throughout the experiment.
DyLight 488-conjugated rat anti-mouse platelet GP1bβ antibody (0.1 μg/g; EMFRET Analytics) and Alexa Fluor 647-conjugated anti-fibrin (0.3 μg/g) were administered intravenously via a jugular vein cannula prior to vascular injury. Microcirculation was monitored and recorded under multichannel intravital microscopy.
Multiple independent thrombi (6-8 thrombi in each mouse) were induced in the arterioles (30-50 μm diameter) in each mouse by a laser ablation system. Images of thrombus formation at the site of injured arterioles were acquired in realtime under 63× water-immersion objective with a Zeiss Axio Examiner Z1 fluorescent microscope equipped with solid laser launch system (LaserStack; Intelligent Imaging Innovations) and high-speed sCMOS camera. All captured images were analyzed for the change of fluorescent intensity over the course of thrombus formation after subtracting fluorescent background using the Slidebook program. […]

[4] = 100 mg/kg IP for 5 days, versus VPA (FIG. 4)

SMILES	formation of the 4-ene-VPA metabolite compared to VPA [1]	bleeding time (C57BL/6 wild type mice [2])	platelet accumulation (C57BL/6 wild type mice [3]; [4])	other results
[2H]C([2H])(C)CC(CC([2H])([2H])C)C(=O)O [4,4,4′,4′-D4VPA]	considerably less formation of the 4-ene metabolite			
[2H]C([2H])([2H])CCC(CCC([2H])([2H])[2H])C(=O)O [5,5,5,5′,5′,5′D6VPA]	increased amount of the 4-ene-VPA metabolite			
[2H]C([2H])C([2H])([2H])CC(CC([2H])([2H])C([2H])[2H])C(=O)O [Compound Ia, 2-[(2,2,3,3-2H4)propyl](4,4,5,5-2H4)pentanoic acid]		best safety profile in terms of risk of excess bleeding	consistent decrease in platelet accumulation over VPA	platelet accumulation (C57BL/6 wild type mice [3]; 30 mg/kg IP for 5 days, versus VPA (FIG. 2)): consistent decrease; fibrin formation (C57BL/6 wild type mice [3]; 30 mg/kg IP for 5 days, versus VPA (FIG. 3)): consistent decrease
[2H]C([2H])C([2H])([2H])CC([2H])(CC([2H])([2H])C([2H])[2H])C(=O)O [Compound Ib, 2-(Propyl-2,2,3,3-d4)pentanoic-2,4,4,5,5-d5 acid]			consistent decrease in platelet accumulation over VPA	
CCCC(CCC)C(=O)O [VPA, Valproic acid]		significant increase in bleeding time		
